Marks after values point to notes of the source that are not given here.
Tests used:
[1] = test system: purified sGC obtained of the rabbit's lungs; details: AS-6 100 mcmol/L, in vitro; cited from earlier work
[2] = test system: sexual behaviour in male rats; test: Sexual activity of male rats with a receptive female, 30-minute observation after the treatment cycle; type: in vivo, rat; parameters: key to Ejaculation rate / Muzzling, licking of the females: + - present; − - absent; details: for Intromission rate / Mounting rate: 30-minute period; for Intromission rate / Mounting rate / Intersession interval / Mounting latency: M ± m; for Intromission rate / Mounting rate / Intersession interval / Mounting latency / Ejaculation rate / Muzzling, licking of the females: n = 8
Experimental: (§1) In the model of arterial hypertension with endothelial dysfunction, endothelial NOS blocker N-nitro-L-arginine methyl ester (L-NAME) was administered intraperitoneally, 25 mg/kg, daily, for 7 days. The blocker was administered in 3% sodium chloride in the dose 1 ml/100 g of body weight. This combination of NO-synthase inhibitor with hypertonic solution provides RAAS activation, aldosterone discharge, retention of sodium and water, functional impairment of the vascular endothelium.
(§2) The animals were divided into the arms as follows: 1—intact animals; 2—control group, males (L-NAME+NaCl; physiological saline as placebo); 3—male rats that received AS-6 in the dose 0.5 mg/kg (Dose 1); 4—male rats that received AS-6 in the dose 5 mg/kg (Dose 2); 5—male rats that received AS-6 in the dose 10 mg/kg (Dose 3); 6—virgin female rats (only in the assessment of the sexual activity). Each group included 8 animals.
Testing of the animals' sexual activity was performed after the end of treatment cycle. Tested male was placed into the testing chamber (40×40×30 cm), 5 minutes before the presentation of sexually receptive female rat. One female was placed next to each male. The assessment of sexual behaviour was performed in the dark room at blind red light. The components of sexual activity were visually recorded during a 30-minute period: mounting latency (ML—interval from the female placing into the cage to the first male mounting) and the rate of mountings, intromissions and ejaculations.

[3] = test system: male Wistar rats, model of arterial hypertension with endothelial dysfunction; test: Blood pressure and heart rate in rat model of arterial hypertension with endothelial dysfunction (L-NAME + 3% NaCl); type: in vivo; details: for DBP / HR / SBP: M ± m, n = 8
Experimental: as §1
The experiments were performed with the use of 40 white male Wistar rats with the baseline body weight 220-240 g and 20 white virgin female rats 180-200 g. The animals were purchased from Rappolovo farm (Russian Academy of Medical Sciences, Saint-Petersburg). Besides mixed fodder, the rats received bread.
AS-6 substance (lot 080909) containing 101.0% of the active ingredient was used, according to the Protocol of Analysis No. 80-Pr, dated by 25 Sep. 2009 (Federal State Unitary Enterprise Special Technology and Construction Bureau “Tekhnolog”). The substance was used for preparation of solutions for daily oral administration based on the physiological saline.
The physiological saline was used as placebo. The solutions were administered daily through the atraumatic metallic feeding tube with fire-polished olive with the use of dosing syringe.
as §2
The measurement of the blood pressure in rats was performed with the use of the system for non-invasive blood pressure measurement for small animals within the complex Polygraph for electrophysiological studies (MP150WSW “BIOPAC Systems, Inc.”, USA.)
Rats were placed into special boxes. HR and BP (SBP and DBP) were recorded several minutes after the stabilization of the measured parameters. The parameters were measured on the tails with the use of piezoelectric probe and corresponding cuff, several minutes following animal placement on the thermostated sheet that maintained the temperature in the chambers within 26-27° C. The functional cardiovascular testing was performed before (at baseline) and after the administration of NOS inhibitor and at the end of treatment.

[4] = test system: conscious SHR and Wistar rats; details: cited from earlier work
[5] = test system: sGC in the aortic tissue; details: aorta of Wistar rats; cited from earlier work
[6] = test system: endothelin-1 (ET-1); test: Serum endothelin-1 (ELISA) in the model of arterial hypertension with endothelial dysfunction; type: in vivo, rat; details: for ET-1: rat serum at the end of experiment, M ± m, n = 8
Experimental: as §1, §2
(§3) Biochemical parameters were assessed with the use of prearranged kits (USCN Life Science Inc., USA, Bender MedSystems GmbH, Austria, R&D Systems, USA). The measurement was performed with the use of multifunctional photometer Synergy-2 (BioTek Instruments, Inc., USA). All studies were conducted in compliance with current laboratory regulations.
(§4) The assessment of endothelin-1, vascular endothelial growth factor and nitric oxide levels was performed in the rats' serum at the end of experiment with the use of immuno-enzyme analysis and spectrophotometric analysis with species-specific (rat-specific) antibodies.
Quantitative measurement of endothelin-1 (ET-1) was performed with the use of ELISA with USCN Life Science Inc. (USA) kits. Serum samples of the experimental animals (50 mcL) and standards of known concentrations were introduced into the plate wells. Then, 50 mcL of detecting solution (reagent A) were introduced. After 1-hour incubation at 37° C., the wells were 3-fold rinsed, and 100 mcL of detecting solution (reagent B) were introduced into each well. Thereafter, the plate was incubated again at 37° C. for 30 minutes. The plate was rinsed with washing buffer 5 times, and 90 mcL of TMB substrate were introduced into each well. After 15-minute incubation at 37° C., 50 mcL of stop-solution were added. The reaction was read at 450 nm.

[7] = test system: vascular endothelial growth factor (VEGF); test: Serum vascular endothelial growth factor (ELISA) in the model of arterial hypertension with endothelial dysfunction; type: in vivo, rat; details: for VEGF: rat serum at the end of experiment, M ± m, n = 8
Experimental: as §1, §2, §3, §4
Quantitative measurement of vascular endothelial growth factor (VEGF) was performed with the use of ELISA with Bender MedSystems GmbH (Austria) kits. Calibration solution 100 mcL, serum samples of the experimental animals (50 mcL) and sample diluent (50 mcL) were introduced into the plate wells. Then, 50 mcL of biotin conjugate were added. After 2-hour incubation at 20° C., the wells were 6 time rinsed, and 100 mcL of streptavidin/horseradish peroxidase conjugate were introduced into each well. Thereafter, the plate was incubated again at 37° C. for 1 hour. The plate was 6 times rinsed with washing buffer, and 100 mcL of TMB substrate were introduced into each well. After 30-minute incubation at 20° C., 100 mcL of stop-solution were added. The reaction was read at 450 and 620 nm.

[8] = test system: nitric oxide (NO); test: Serum unbound nitric oxide (spectrophotometry, Griss reagent) in the model of arterial hypertension with endothelial dysfunction; type: in vivo, rat; details: for NO: rat serum at the end of experiment, M ± m, n = 8
Experimental: as §1, §2, §3, §4
Quantitative measurement of unbound nitric oxide was performed with the use spectrophotometry with R&D Systems kits (USA). The proteins were precipitated with zinc sulphate/sodium hydroxide. Serum supernatant samples of the experimental animals (50 mcL) and standards of known concentrations were introduced into the plate wells. Then, 50 mcL of sample diluent, Griss reagent 1 and Griss reagent 2 were added. The reaction was read at 540 and 690 nm after 10-minute incubation at 37° C.

[9] = test system: model of L-NAME-induced NO deficiency; details: cited from earlier work
[10] = test system: NO-synthase; details: 7-day-long administration of L-NAME; cited from earlier work
[11] = 7-day-long administration of L-NAME; cited from earlier work
[12] = AS-6 0.5 mg/kg oral daily, After treatment (Day 14)
[13] = AS-6 5 mg/kg oral daily, After treatment (Day 14)
[14] = AS-6 10 mg/kg oral daily, After treatment (Day 14)
[15] = arm AS-6 0.5 mg/kg, Baseline (Day 0), before L-NAME and treatment
[16] = arm AS-6 0.5 mg/kg, Post-dose L-NAME (Day 7), before treatment
[17] = arm AS-6 5 mg/kg, Baseline (Day 0), before L-NAME and treatment
[18] = arm AS-6 5 mg/kg, Post-dose L-NAME (Day 7), before treatment
[19] = arm AS-6 10 mg/kg, Baseline (Day 0), before L-NAME and treatment
[20] = arm AS-6 10 mg/kg, Post-dose L-NAME (Day 7), before treatment
[21] = Nicorandil (4 mg/kg) preconditioning

[O-]c1n[n+](-c2nc[nH]n2)no1 [AS-6, 3-(3-[1,2,4]-triazolo)-oxatriazolium-5-olate]
sGC activation compared to the basal activity [1]: up to 30 fold
increase of number of animals with intromissions vs. control ([2]; AS-6 10 mg/kg): 4 fold
number of animals with intromissions ([2]; AS-6 10 mg/kg): 50%
animals with increased mounting rate vs. control ([2]; AS-6 0.5 and 5 mg/kg): 40%
decrease of ML (mounting latency) ([2]; AS-6 0.5 and 5 mg/kg): 1.5 fold
number of animals with intromissions ([2]; AS-6 0.5 and 5 mg/kg): 25%
rats with increased intromission rate ([2]; AS-6 0.5 and 5 mg/kg): 25%
Intromission rate ([2]; Azasidnon 0.5 mg/kg): 1.6 ± 1.4
Mounting rate ([2]; Azasidnon 0.5 mg/kg): 6.6 ± 2.8
Intersession interval ([2]; Azasidnon 0.5 mg/kg): 8.8 ± 0.9 min
Mounting latency ([2]; Azasidnon 0.5 mg/kg): 3.9 ± 0.9*^ min
Ejaculation rate ([2]; Azasidnon 0.5 mg/kg): −
Muzzling, licking of the females ([2]; Azasidnon 0.5 mg/kg): +
Intromission rate ([2]; Azasidnon 5.0 mg/kg): 1.4 ± 1.1
Mounting rate ([2]; Azasidnon 5.0 mg/kg): 7.4 ± 3.1
Intersession interval ([2]; Azasidnon 5.0 mg/kg): 10.2 ± 2.2 min
Mounting latency ([2]; Azasidnon 5.0 mg/kg): 4.2 ± 1.9*^ min
Ejaculation rate ([2]; Azasidnon 5.0 mg/kg): −
Muzzling, licking of the females ([2]; Azasidnon 5.0 mg/kg): +
Intromission rate ([2]; Azasidnon 10.0 mg/kg): 3.1 ± 1.5
Mounting rate ([2]; Azasidnon 10.0 mg/kg): 8.6 ± 2.6
Intersession interval ([2]; Azasidnon 10.0 mg/kg): 7.5 ± 1.9 min
Mounting latency ([2]; Azasidnon 10.0 mg/kg): 3.2 ± 1.4*^ min
Ejaculation rate ([2]; Azasidnon 10.0 mg/kg): −
Muzzling, licking of the females ([2]; Azasidnon 10.0 mg/kg): +
influence on ejaculation ([2]; all doses): did not influence
effect on SBP and DBP levels ([3]; AS-6 0.5 mg/kg): did not affect SBP or DBP levels
DBP [3, 12]: 111.9 ± 5.2 mm Hg
HR [3, 12]: 420.0 ± 13.7
SBP [3, 12]: 153.1 ± 7.3 mm Hg
effect on SBP and DBP levels ([3]; AS-6 5 mg/kg): decrease of elevated DBP and unchanged elevated SBP
DBP [3, 13]: 111.5 ± 7.9 mm Hg
HR [3, 13]: 435.9 ± 28.9
SBP [3, 13]: 141.9 ± 7.1 mm Hg
DBP [3, 14]: 102.0 ± 3.2 mm Hg
HR [3, 14]: 404.4 ± 17.6
SBP [3, 14]: 123.4 ± 4.2 mm Hg
effect on blood pressure ([3]; AS-6 10 mg/kg, vs. baseline values and experimental model, p<0.05): normalization of the blood pressure
DBP [3, 15]: 98.7 ± 2.2 mm Hg
HR [3, 15]: 417.6 ± 17.6
SBP [3, 15]: 126.2 ± 2.5 mm Hg
DBP [3, 16]: 113.8 ± 4.6 mm Hg
HR [3, 16]: 351.8 ± 8.7
SBP [3, 16]: 145.0 ± 3.1 mm Hg
DBP [3, 17]: 97.9 ± 3.2 mm Hg
HR [3, 17]: 428.2 ± 22.1
SBP [3, 17]: 123.8 ± 3.4 mm Hg
DBP [3, 18]: 117.0 ± 4.4 mm Hg
HR [3, 18]: 376.0 ± 15.3
SBP [3, 18]: 148.6 ± 4.5 mm Hg
DBP [3, 19]: 98.5 ± 4.7 mm Hg
HR [3, 19]: 393.6 ± 19.1
SBP [3, 19]: 130.5 ± 4.6 mm Hg
DBP [3, 20]: 120.1 ± 5.0 mm Hg
HR [3, 20]: 357.1 ± 14.8
SBP [3, 20]: 149.1 ± 3.4 mm Hg
changes of the heart rate ([3]; control or experimental arm): No significant changes of the heart rate
effect on blood pressure, dose dependence ([3]; peak at 10 mg/kg after 7 days of treatment): dose-dependent decrease of blood pressure
hypotensive effect [4]: prolonged hypotensive effect
activation of cGMP synthesis compared to baseline [5]: up to 13 fold
effect on endothelin-1 levels ([6]; most significant at 10 mg/kg, p=0.010 vs. control): significant favourable changes of endothelin-1 levels
ET-1 ([6]; AS-6 0.5 mg/kg): 2.48 ± 0.50 pg/mL
ET-1 ([6]; AS-6 5.0 mg/kg): 1.75 ± 0.48 pg/mL
ET-1 ([6]; AS-6 10.0 mg/kg): 0.78 ± 0.29 pg/mL
effect on vascular endothelial growth factor production ([7]; 10 mg/kg dose: p=0.116 vs. control): dose-dependent trend to the normalization of vascular endothelial growth factor production
VEGF ([7]; AS-6 0.5 mg/kg): 46.01 ± 2.42 pg/mL
VEGF ([7]; AS-6 5.0 mg/kg): 79.49 ± 19.75 pg/mL
VEGF ([7]; AS-6 10.0 mg/kg): 91.95 ± 21.84 pg/mL
effect on nitric oxide (NO) production ([8]; exceeded the level of treatment-naive animals at 10 mg/kg): dose-dependent increase of nitric oxide (NO) production
NO ([8]; AS-6 0.5 mg/kg): 8.83 ± 1.06 mcmol/l
NO ([8]; AS-6 5.0 mg/kg): 10.75 ± 0.55^ mcmol/l
NO ([8]; AS-6 10.0 mg/kg): 14.08 ± 1.25*^ mcmol/l

O=C(NCCO[N+](=O)[O-])c1cccnc1 [Nicorandil]
CRP [9, 21]: 0.6 ± 0.1 mg/dL
NO level [9, 21]: 6.2±0.25 mcmol/L
endothelial dysfunction ratio (EDR) [9, 21]: 1.76±0.18 AU
myocardium contractility during resistance testing [9, 21]: 77.2±8.3%

COc1ccc(Cl)cc1C(=O)NCCc1ccc(S(=O)(=O)NC(=O)NC2CCCCC2)cc1 [Glibenclamide]
effect on protective effects of preconditioning ([9]; Glibenclamide 4 mg/kg, blockade of ATP-dependent potassium channels): neutralized protective effects

COC(=O)[C@@H](N)CCCNC(=N)N[N+](=O)[O-].Cl [L-NAME, N-omega-nitro-L-arginine methyl ester hydrochloride]
mean diastolic BP [10]: 146.0±4.2 mm Hg
mean systolic blood pressure [10]: 191.3±7.1 mm Hg
increase of endothelial dysfunction ratio [11]: 5 fold

— US9795593B2, “Use of 3-(3-[1,2,4]-triazolo)-oxatriazolium-5-olate for treating sexual disorders” (LIMITED LIABILITY COMPANY “KONSORTSIUM-PIK”, priority 2014, dated 2017)
